Experimental data reported in patent US20260069580A1, “PEROXIREDOXIN 3 INHIBITORS AND METHODS OF USE FOR TREATING CANCER” (WAKE FOREST UNIVERSITY HEALTH SCIENCES, priority 2022, published 2026).
≈ marks a conversion by molar mass, not a printed value. Read-outs that look alike come from different tables or passages of the source.

How the values were obtained:
Solubility Assay = format: physicochemical; set-up: key: +++: >1 mM; ++: 0.1-1 mM; +: <0.1 mM; −: polymerized; n.d.: not detectable/not measurable; conditions: 20 mM HEPES, 100 mM NaCl, pH 7.5, 18-24 hours at ambient temperature, HPLC
Experimental: A 20 mM stock solution was made for each compound in DMSO. To measure solubility, 0.03-0.05 mL of the stock was added to 0.27 mL 20 mM HEPES, 100 mM NaCl, pH 7.5. The solution was mixed and rotated 18-24 hours at ambient temperature. The next day, solutions were centrifuged for 10 min at 20,000×g at 24° C. to remove insoluble, solid material. Next, 100 μL of the supernatant containing the soluble compound was added to 900 μL DMSO and High Performance Liquid Chromatography was performed as described in Table 1 and either HPLC gradient 1 (Table 2) for HPLC gradient 2 (Table 3). For each analog, a 200 μM standard and a 20 μM standard were prepared and run in parallel (standards were dissolved completely in 100% DMSO). The amount of compound in the experimental sample was calculated by comparing the area under the curve for compound peak to the area for the closest standard and correcting for dilution.

purified human PRX3 = target: T1, purified human PRX3 (Homo sapiens, UniProt P30048); experiment: Biochemical PRX3 Inhibition Assay (crosslink by SDS PAGE + mono-adduct by MALDI-TOF MS); conditions: incubated 1-2 hr at 37° C., hydrogen peroxide added
T1 construct: made in house
T1 sequence (P30048 62-256): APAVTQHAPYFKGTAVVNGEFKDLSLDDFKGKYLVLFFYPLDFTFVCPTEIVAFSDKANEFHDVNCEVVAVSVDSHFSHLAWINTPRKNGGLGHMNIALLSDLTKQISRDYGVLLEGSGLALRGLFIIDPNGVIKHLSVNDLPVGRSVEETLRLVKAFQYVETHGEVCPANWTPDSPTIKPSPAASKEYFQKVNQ
Experimental: This assay tests the ability of each compound to form a covalent adduct with PRX3. The assay is performed as described in Nelson et al. (2021) Antioxidants (Basel) 10, 150; and Cunniff et al. (2015) PloS one 10, eO127310, and follows the appearance of non-reducible PRX3 crosslinks by SDS PAGE gel electrophoresis and follows the appearance of single PRX3 adducts by mass spectrometry. For this assay, purified human PRX3, hydrogen peroxide (the PRX3 substrate) and all the components required to enable PRX3 to catalytically cycle (thioredoxin-thioredoxin reductase-NAPDH system) are included (details below).
The biochemical PRX3 Inhibition assay contains 100 µM PRX3, 50 µM human TRX2, 0.5 μM mouse thioredoxin reductase, and a NADPH regenerating system composed of 3.2 mM glucose 6-phosphate, 3.2 U/ml glucose 6-phosphate dehydrogenase and 0.4 mM NADPH. Samples are incubated for 1-2 hr at 37° C. with either 0.2 mM TS (positive control), compounds or an equivalent volume of DMSO (negative control). During this incubation, hydrogen peroxide is added to induce turnover of PRX3. Reactions are stopped by the addition of a buffer containing 100 mM dithiolthreitol (to break disulfide bonds) and SDS (detergent to denature proteins). NADPH, Glucose 6-Phosphate, and glucose 6-phosphate dehydrogenase were purchased from Sigma Aldrich. PRX3, thioredoxin, and thioredoxin reductase were all purified to >98% purity in the Lowther laboratory according to protocols referenced in Nelson et al. (2021) Antioxidants (Basel) 10, 150; and Cunniff et al. (2015) PloS one 10, e0127310.
To measure the amount of PRX3 crosslink, proteins in the reaction were separated by SDS-polyacrlyamide gel electrophoresis and stained for total protein using GelCode Blue (Life Technologies). The amount of unmodified PRX3 and TS-PRX3 crosslink was measured by densiometric analysis of the signal for the PRX3 band running at the MW of a PRX3 crosslink (˜46 kDa) compared to the PRX3 signal at the MW of the un-modified PRX3 (˜23 kD).
To measure covalent adduct formation on a single PRX3 monomer, each reaction was exchanged into a mass spectrometry compatible buffer containing 40 mM ammonium citrate, pH 8.3 made in HPLC water. Sample was mixed 1:1 with a matrix solution containing 30 mg/mL sinapinic acid in 70% (vol/vol) acetonitrile, 0.2% formic acid and spotted to onto the sample plate. PRX3 mass was measured by MALDI-TOF MS analysis on a Bruker Daltonics MALDI-TOF MS spectrometer. Spectra were analyzed in FLEXAnalysis Software. The intensity of the reduced PRX3 peak (SH) and intensity of the analog adduct peak was determined and corrected for background signal at the adduct peak in the DMSO control. The fraction of single analog adduct in the monomer peak was determined by dividing the intensity of the adduct peak by the summed intensity of the SH and adduct peaks.

[1] = system: Enterococcus hirae (ATCC #10541); experiment: Antimicrobial Activity Assay; format: cell-based; conditions: for MIC: Enterococcus hirae
Experimental: The overnight growth was then diluted into growth media to make a single solution of E. hirae with a final optical density at 600 nm=0.02 AU. A 20 mM stock solution of Thiostrepton in DMSO was made and used to make multiple dilutions of TS in DMSO. Each TS dilution (0.1 mL) was then added to a test tube containing 10 mL of the diluted E. hirae and grown at 37° C. overnight while shaking at 180 rpm. The next morning, each tube was visually inspected to determine if the cells grew. Final concentrations tested were 0.120, 0.090, 0.075, 0.060, 0.045, 0.030, and 0.015 μM TS. […] Three replicates were made on three separate days (n=9). […] For TS analogs, the dilute E. hirae was treated with 20 µM final concentration of each analog (three replicates each). […] DMSO was used as a positive control (complete cell growth) and 20 µM thiostrepton was used as a negative control.

[2] = system: human SK—OV-3 ovarian cancer cells; experiment: Cellular Activity Assay (cytotoxicity, crystal violet); format: cell-based
Excerpt: To test the activity of compounds, two complimentary assays were used as described below. The Biochemical PRX3 Inhibition Assay tests the ability of each compound to crosslink PRX3 in a simple, in vitro system. In the Cellular Activity Assay, we are testing the ability of compounds to kill SK—OV-3 ovarian cancer cells.
The Cellular Activity Assay measures the EC50 of each compound in human SK—OV-3 ovarian cancer cells TS to be taken into the cell, transported to the mitochondria, and crosslink PRX3.
The cytotoxicity of compounds was measured as described in Nelson et al. (2021) Antioxidants (Basel) 10, 150; Cunniff et al. (2015) PloS one 10, e0127310; and Newick et al. (2012) PloS one 7, e39404. SK—OV-3 is an adherent, epithelial, adenocarcenoma cell line obtained from ATCC (ref #: HTB-77). SK—OV-3 cells are resistant to the commonly used chemotherapeutics, cis-platinum and doxorubicin. For this […], SK—OV-3 cells were plated in a 96-well plate. After 24 h recovery, the cells were treated for 48 hr with multiple concentrations of each compound ranging from 0.1-100 μM.
Cells were washed with PBS to remove dead cells and the remaining live cells were fixed with 3.0% formaldehyde and stained with 0.1% crystal violet. The amount of crystal violet was determined by reading the absorbance at 540 nm (crystal violet dye dissolved in 100% methanol) using a plate reader. The signal for crystal violet dye is proportional to the biomass of remaining live cells. GraphPad Prism9 software was used to calculate the effective inhibitory concentration (EC50) of test compounds. Results for each compound, are normalized to the amount of cells in control wells treated with the equivalent concentration of DMSO (negative control). TS or Compound A (Reference Compound) were included in each set of assays as a positive control.

578 cancer cells lines = conditions: of 578 cancer cells lines tested; cited from earlier work
[3] = HEPES/NaCl buffer, aqueous with cosolvent or surfactant or cyclodextrin, kinetic from dmso stock, read-out: Solubility
[4] = ATCC10541, E. hirae, overnight growth at 37° C., read-out: Antimicrobial Activity
[5] = SK—OV-3 cells, treated 48 hr, 0.1-100 μM, crystal violet, read-out: EC50
[6] = ATCC10541, read-out: Antimicrobial Activity

Structure (SMILES)	PRX3 Inhibition (Crosslink + Mono-adduct) (purified human PRX3)	solubility (Solubility Assay; [3]) [µM]	MIC [1, 4] [µM]	EC50 [2, 5] [µM]	further results
C=C(NC(=O)c1cn(-c2ccccc2)cn1)C(=O)NC(=C)C(=O)OC [Compound 1, Methyl 2-(2-(1-phenyl-1H-imidazole-4-carboxamido)acrylamido)acrylate]	+++ (>90%)	< 100			MIC [1, 6]: > 20 µM; EC50 ([2]; SK-OV-3, 48 h): 1 to 10 µM
C=C(NC(=O)c1csc(-c2ccc(NC(=O)CCCCCBr)cc2)n1)C(=O)NC(=C)C(=O)OC [Compound A, Methyl 2-(2-(2-(4-(6-bromohexanamido)phenyl)thiazole-4-carboxamido)acrylamido)acrylate, reference compound]		< 100			Antimicrobial Activity ([1]; E. hirae, overnight growth at 37° C.): − (>20 μM)
C=C(NC(=O)C(=C)NC(=O)c1csc(C2=N[C@@H]3c4csc(n4)[C@H]4NC(=O)c5csc(n5)[C@H]([C@](C)(O)[C@@H](C)O)NC(=O)[C@H]5CSC(=N5)/C(=C/C)NC(=O)[C@H]([C@@H](C)O)NC(=O)c5csc(n5)[C@]3(CC2)NC(=O)[C@H](C)NC(=O)C(=C)NC(=O)[C@H](C)NC(=O)[C@H]([C@@H](C)CC)N[C@@H]2C=Cc3c([C@H](C)O)cc(nc3[C@H]2O)C(=O)O[C@@H]4C)n1)C(N)=O [Thiostrepton, reference compound]	++ (50-90%)				tumor cells lines in which meaningful efficacy was shown (578 cancer cells lines): 403; solubility (Solubility Assay; aqueous with cosolvent or surfactant or cyclodextrin, kinetic from dmso stock, read-out: Solubility): < 100 µM; TS concentrations at which complete growth was observed ([1]; E. hirae, overnight at 37° C., visual inspection, n=9): ≤ 0.030 µM; MIC [1, 6]: 0.02 to 0.2 µM (≈ 0.0333 to 0.333 µg/mL); MIC ([1]; ATCC10541, read-out: TS concentrations at which no growth was observed (MIC determination)): ≥ 0.045 µM; EC50 ([2]; SK-OV-3, 48 h): 1 to 10 µM

Second part, led by results:

PRX3 Inhibition (Crosslink + Mono-adduct) (purified human PRX3)	solubility (Solubility Assay; [3]) [µM]	MIC [1, 4] [µM]	Structure (SMILES)	EC50 [2, 5] [µM]	further results
+ (5-50%)			C=C(NC(=O)OCC1CCN(C(=O)OC(C)(C)C)CC1)C(=O)NC(=C)C(=O)OC [Compound 3, Tert-butyl 4-(5,8-dimethylene-3,6,9-trioxo-2,10-dioxa-4,7-diazaundecyl)piperidine-1-carboxylate]		solubility (Solubility Assay): −
++ (50-90%)	< 100	> 20	C=C(NC(=O)c1cn(C2CCN(C(=O)OC(C)(C)C)CC2)nn1)C(=O)NC(=C)C(=O)OC [Compound 5, Tert-butyl 4-(4-((3-((3-methoxy-3-oxoprop-1-en-2-yl)amino)-3-oxoprop-1-en-2-yl)carbamoyl)-1H-1,2,3-triazol-1-yl)piperidine-1-carboxylate]	1 to 10	
++ (50-90%)	> 1000	> 20	C=C(NC(=O)OC1CCN(C(=O)OC(C)(C)C)CC1)C(=O)NC(=C)C(=O)OC [Compound 4, Tert-butyl 4-(((3-((3-methoxy-3-oxoprop-1-en-2-yl)amino)-3-oxoprop-1-en-2-yl)carbamoyl)oxy)piperidine-1-carboxylate]	> 100	
++ (50-90%)	> 1000	> 20	C=C(NC(=O)c1cnn(-c2ccccc2)c1)C(=O)NC(=C)C(=O)OC [Compound 2, Methyl 2-(2-(1-phenyl-1H-pyrazole-4-carboxamido)acrylamido)acrylate]	10 to 25	
+++ (>90%)	> 1000	> 20	C=C(NC(=O)c1ccn(C2CCN(C(=O)OC(C)(C)C)CC2)n1)C(=O)NC(=C)C(=O)OC [Compound 6, Tert-butyl 4-(3-((3-((3-methoxy-3-oxoprop-1-en-2-yl)amino)-3-oxoprop-1-en-2-yl)carbamoyl)-1H-pyrazol-1-yl)piperidine-1-carboxylate]	25 to 100	
